Source: patent US20260242391A1 (priority 2023, published 2026)

How the values were obtained:
[1] = tested on: HL-60; test: HL-60 differentiation potency; type: cell-based; settings: Homo sapiens
[2] = in vitro; settings: human

Row | Compound | EC50 [1] [nM] | IC50 [2] [nM]
1 | C[C@H]1[C@@H](OC[C@@]2(F)CCC(C(=O)O)C2)O[C@@H]2O[C@@]3(C)CC[C@H]4[C@H](C)CC[C@@H]1[C@@]24OO3 (stereo partly drawn) [Compound 210, (3R)-3-fluoro-3-((((3R,5aS,6R,8aS, 9R,10S,12R, 12aR)-3,6,9-trimethyldeca-hydro-12H-3,12-epoxy[1,2]dioxepino[4,3-i]isochromen-10-yl)oxy)methyl) cyclopentane-1-carboxylic acid] | 2500 | 7580
2 | C[C@H]1[C@@H](Oc2ccc(C(=O)NC3(C(=O)O)COC3)cc2Cl)O[C@@H]2O[C@@]3(C)CC[C@H]4[C@H](C)CC[C@@H]1[C@@]24OO3 [Compound 265, 3-(3-chloro-4-(((3R,5aS,6R,8aS, 9R,10S,12R, 12aR)-3,6,9-trimethyldeca-hydro-12H-3,12-epoxy[1,2]dioxepino[4,3-i]isochromen-10-yl)oxy)benzamido) oxetane-3-carboxylic acid] | 6450 | 17200
3 | C[C@H]1[C@@H](OC[C@H]2CC[C@@H](C(=O)N[C@@H](CC(F)(F)F)C(=O)O)CC2)O[C@@H]2O[C@@]3(C)CC[C@H]4[C@H](C)CC[C@@H]1[C@@]24OO3 [Compound 256, (S)-4,4,4-trifluro-2-((1R,4R)-4-((((3R,5aS,6R,8aS, 9R,10S,12R, 12aR)-3,6,9-trimethyldeca-hydro-12H-3,12-epoxy[1,2]dioxepino[4,3-i]isochromen-10-yl)oxy)methyl)cyclohexane-1-carboxamido) butanoic acid] | 3070 | 15300
4 | C[C@H]1[C@@H](Oc2ccc(OCC(=O)O)cc2Cl)O[C@@H]2O[C@@]3(C)CC[C@H]4[C@H](C)CC[C@@H]1[C@@]24OO3 [Compound 218, 2-(3-chloro-4-(((3R,5aS,6R,8aS, 9R,10S,12R, 12aR)-3,6,9-trimethyldeca-hydro-12H-3,12-epoxy[1,2]dioxepino[4,3-i]isochromen-10-yl)oxy)phenoxy) acetic acid] | 101 | 690
5 | C[C@H]1[C@@H](OCc2ccc(C(=O)N[C@H]3CC[C@@H](C(=O)O)C3)cc2)O[C@@H]2O[C@@]3(C)CC[C@H]4[C@H](C)CC[C@@H]1[C@@]24OO3 [Compound 275, (1R,3S)-3-(4-((((3R,5aS,6R,8aS, 9R,10S,12R, 12aR)-3,6,9-trimethyldeca-hydro-12H-3,12-epoxy[1,2]dioxepino[4,3-i]isochromen-10-yl)oxy)methyl)benzamido) cyclopentane-1-carboxylic acid] | 240 | 6800
6 | C[C@H]1[C@@H](Oc2ccc(C(=O)N3CC(C(=O)O)C3)cc2Cl)O[C@@H]2O[C@@]3(C)CC[C@H]4[C@H](C)CC[C@@H]1[C@@]24OO3 [Compound 244, 1-(3-chloro-4-(((3R,5aS,6R,8aS, 9R,10S,12R, 12aR)-3,6,9-trimethyldeca-hydro-12H-3,12-epoxy[1,2]dioxepino[4,3-i]isochromen-10-yl)oxy)benzoyl) azetidine-3-carboxylic acid] | 101 | 2460
7 | C[C@H]1[C@@H](OCc2ccc(C(=O)N[C@H](C(=O)O)C(C)(C)C)cc2)O[C@@H]2O[C@@]3(C)CC[C@H]4[C@H](C)CC[C@@H]1[C@@]24OO3 [Compound 281, (S)-3,3-dimethyl-2-(4-((((3R,5aS,6R,8aS, 9R,10S,12R, 12aR)-3,6,9-trimethyldeca-hydro-12H-3,12-epoxy[1,2]dioxepino[4,3-i]isochromen-10-yl)oxy)methyl)benzamido) butanoic acid] | 112 | 430
8 | C[C@H]1[C@@H](OCc2ccc(C(=O)N[C@@H]3C[C@H](C(=O)O)C[C@H]3O)cc2)O[C@@H]2O[C@@]3(C)CC[C@H]4[C@H](C)CC[C@@H]1[C@@]24OO3 [Compound 288, (1S,3R,4R)-3-hydroxy-4-(4-((((3R,5aS,6R,8aS, 9R,10S,12R, 12aR)-3,6,9-trimethyldeca-hydro-12H-3,12-epoxy[1,2]dioxepino[4,3-i]isochromen-10-yl)oxy)methyl)benzamido) cyclopentane-1-carboxylic acid] | 5580 | > 20000
9 | C[C@H]1[C@@H](OCc2ccc(OCC(=O)O)cc2)O[C@@H]2OC3(C)CC[C@H]4[C@H](C)CC[C@@H]1[C@@]24OO3 (stereo in doubt) [Compound 274, 2-(4-((((3R,5aS,6R,8aS, 9R,10S,12R, 12aR)-3,6,9-trimethyldeca-hydro-12H-3,12-epoxy[1,2]dioxepino[4,3-i]isochromen-10-yl)oxy)methyl)phenoxy)acetic acid] | 848 | > 20000
10 | C[C@H]1[C@@H](OCc2ccc(C(=O)N3CCC(C(=O)O)CC3)cc2)O[C@@H]2O[C@@]3(C)CC[C@H]4[C@H](C)CC[C@@H]1[C@@]24OO3 [Compound 277, 1-(4-((((3R,5aS,6R,8aS, 9R,10S,12R, 12aR)-3,6,9-trimethyldeca-hydro-12H-3,12-epoxy[1,2]dioxepino[4,3-i]isochromen-10-yl)oxy)methyl)benzoyl) piperidine-4-carboxylic acid] | 1780 | > 20000
11 | CO[C@]1(CO[C@H]2O[C@@H]3O[C@@]4(C)CC[C@H]5[C@H](C)CC[C@@H]([C@H]2C)[C@@]35OO4)CC[C@H](C(=O)O)CC1 [Compound 193, (1R,4s)-4-methoxy-4-((((3R,5aS,6R,8aS, 9R,10S,12R, 12aR)-3,6,9-trimethyldeca-hydro-12H-3,12-epoxy[1,2]dioxepino[4,3-i]isochromen-10-yl)oxy)methyl) cyclohexane-1-carboxylic acid] | 7030 | > 20000
12 | C[C@H]1[C@H](OCc2ccc(C(=O)O)cc2C(F)(F)F)O[C@@H]2O[C@@]3(C)CC[C@H]4[C@H](C)CC[C@@H]1[C@@]24OO3 [Compound 195, 3-(trifluoromethyl)-4-((((3R,5aS,6R,8aS, 9R,10R,12R, 12aR)-3,6,9-trimethyldeca-hydro-12H-3,12-epoxy[1,2]dioxepino[4,3-i]isochromen-10-yl)oxy)methyl) benzoic acid] | 156 | 10000

Compounds with a lower EC50 [1], results first:

Row | EC50 [1] [nM] | IC50 [2] [nM] | Compound
13 | 15.8 | 40 | C[C@H]1[C@@H](Oc2ccc(C(=O)Nc3ccc(C(=O)O)cc3)cc2)O[C@@H]2O[C@@]3(C)CC[C@H]4[C@H](C)CC[C@@H]1[C@@]24OO3 [Compound 246, 4-(4-(((3R,5aS,6R,8aS, 9R,10S,12R, 12aR)-3,6,9-trimethyldeca-hydro-12H-3,12-epoxy[1,2]dioxepino[4,3-i]isochromen-10-yl)oxy)benzamido) benzoic acid]
14 | 32.9 | 700 | C[C@H]1[C@@H](Oc2ccc(OC3CCC(C(=O)O)C3)cc2)O[C@@H]2O[C@@]3(C)CC[C@H]4[C@H](C)CC[C@@H]1[C@@]24OO3 (stereo partly drawn) [Compound 227, 3-(4-(((3R,5aS,6R,8aS, 9R,10S,12R, 12aR)-3,6,9-trimethyldeca-hydro-12H-3,12-epoxy[1,2]dioxepino[4,3-i]isochromen-10-yl)oxy)phenoxy) cyclopentane-1-carboxylic acid]
15 | 74.2 | 720 | C[C@H]1[C@@H](Oc2ccc(O[C@H]3CC[C@@H](C(=O)O)CC3)cc2)O[C@@H]2O[C@@]3(C)CC[C@H]4[C@H](C)CC[C@@H]1[C@@]24OO3 [Compound 243, (1R,4s)-4-(4-(((3R,5aS,6R,8aS, 9R,10S,12R, 12aR)-3,6,9-trimethyldeca-hydro-12H-3,12-epoxy[1,2]dioxepino[4,3-i]isochromen-10-yl)oxy)phenoxy) cyclohexane-1-carboxylic acid]
16 | 62 | 13100 | C[C@H]1[C@@H](Oc2ccc(COCC(=O)O)cc2)O[C@@H]2O[C@@]3(C)CC[C@H]4[C@H](C)CC[C@@H]1[C@@]24OO3 [Compound 219, 2-((4-(((3R,5aS,6R,8aS, 9R,10S,12R, 12aR)-3,6,9-trimethyldeca-hydro-12H-3,12-epoxy[1,2]dioxepino[4,3-i]isochromen-10-yl)oxy)benzyl)oxy)acetic acid]
17 | 65 | 15800 | C[C@H]1[C@@H](OCc2ccc(NC(=O)[C@H]3CC[C@@H](C(=O)O)C3)cc2)O[C@@H]2O[C@@]3(C)CC[C@H]4[C@H](C)CC[C@@H]1[C@@]24OO3 [Compound 294, (1R,3S)-3-((4-((((3R,5aS,6R,8aS, 9R,10S,12R, 12aR)-3,6,9-trimethyldeca-hydro-12H-3,12-epoxy[1,2]dioxepino[4,3-i]isochromen-10-yl)oxy)methyl)phenyl)carbamoyl) cyclopentane-1-carboxylic acid]
18 | 18 | 1530 | C[C@H]1[C@@H](OCc2ccc(C(=O)NCC3(C(=O)O)CCC3)cc2)O[C@@H]2O[C@@]3(C)CC[C@H]4[C@H](C)CC[C@@H]1[C@@]24OO3 [Compound 286, 1-((4-((((3R,5aS,6R,8aS, 9R,10S,12R, 12aR)-3,6,9-trimethyldeca-hydro-12H-3,12-epoxy[1,2]dioxepino[4,3-i]isochromen-10-yl)oxy)methyl)benzamido)methyl) cyclobutane-1-carboxylic acid]
19 | 53.1 | 3000 | C[C@H]1[C@H](OCc2c(Cl)cc(C(=O)O)cc2S(C)(=O)=O)O[C@@H]2O[C@@]3(C)CC[C@H]4[C@H](C)CC[C@@H]1[C@@]24OO3 [Compound 217, 3-chloro-5-(methylsulfonyl)-4-((((3R,5aS,6R,8aS, 9R,10R,12R, 12aR)-3,6,9-trimethyldeca-hydro-12H-3,12-epoxy[1,2]dioxepino[4,3-i]isochromen-10-yl)oxy)methyl) benzoic acid]
20 | 60.8 | 1000 | C[C@H]1[C@@H](OC[C@H]2CC[C@@H](C(=O)Nc3ccc(C(=O)O)cc3)CC2)O[C@@H]2O[C@@]3(C)CC[C@H]4[C@H](C)CC[C@@H]1[C@@]24OO3 [Compound 287, 4-((1R,4s)-4-((((3R,5aS,6R,8aS, 9R,10S,12R, 12aR)-3,6,9-trimethyldeca-hydro-12H-3,12-epoxy[1,2]dioxepino[4,3-i]isochromen-10-yl)oxy)methyl)cyclohexane-1-carboxamido) benzoic acid]
21 | 48.9 | 4280 | C[C@H]1[C@@H](Oc2ccc(OC3(C(=O)O)CC3)cc2)O[C@@H]2O[C@@]3(C)CC[C@H]4[C@H](C)CC[C@@H]1[C@@]24OO3 [Compound 268, 1-(4-(((3R,5aS,6R,8aS, 9R,10S,12R, 12aR)-3,6,9-trimethyldeca-hydro-12H-3,12-epoxy[1,2]dioxepino[4,3-i]isochromen-10-yl)oxy)phenoxy) cyclopropane-1-carboxylic acid]
